How the values were obtained:
[1] = PK modelling of plasma exposure of Example 1 for different dosing regimens; design: species or system human; conditions: modelled
Excerpt: In Table 1, free plasma CMax exposures of Example 1 obtained from modelling different dosing regimens were used to quantify the resulting amount of block at the primary target hNaV1.7. […] Doses of marketed drugs used in trigeminal neuralgia were compared using the same paradigm.

[2] = system: painful lumbosacral radiculopathy; assay: Clinical efficacy in painful lumbosacral radiculopathy (Phase 2); format: in vivo, human; conditions: 350 mg bid, PLSR
healthy participants [3] = assay: Phase 1 cross-over ambulatory blood pressure monitoring (ABPM) study, 300/400 mg BID; format: in vivo, human; conditions: for Observations with DBP: Change > 10 and absolute value > 80 mmHg / Observations with SBP: Change > 10 and absolute value > 130 mmHg: outpatient, number of observations (%)
Method: This study reports the results of a Phase 1, randomized cross-over trial designed to assess inpatient and outpatient ambulatory blood pressure monitoring (ABPM) in healthy volunteers treated with the compound of Example 1 (BIIB074) for 36 days.
This was a Phase 1, randomized, double-blind, placebo-controlled, repeat dose, 2-period cross-over study to investigate the effect of BIIB074 300-400 mg bid on ambulatory blood pressure (ABP) in healthy participants (FIG. 2). The study comprised: screening (to occur a maximum of 30 days before the first baseline assessment); two 36-day treatment periods, each preceded by a baseline visit and separated by a 7-day washout (to minimize possible carry over effects); and a follow-up period of 7-14 days after last dose. Prior to this study, no females had received BIIB074; for this reason, a single dose BIIB074 session at the dose level of 400 mg was also conducted in female participants one week prior to the period 1 baseline visit. Following this session, some participants were predicted to exceed the predefined PK limit (area under the plasma concentration-time curve [AUC] 97 μg·h/mL) when receiving 400 mg bid at steady state. Therefore, in the subsequent phases of the study, all female participants received a lower dose of 300 mg bid (males received 400 mg bid).
The primary endpoint was change in 24 h average SBP and DBP from baseline to day 36 as determined by ABPM. Secondary outcome measures included: change in 24 h average SBP and DBP from baseline to days 4 and 15; change in average SBP and DBP within a 12 h dosing interval from baseline to days 14 and 35 (inpatient); change in 24 h average ambulatory heart rate from baseline to days 4, 15 and 36; proportion of participants whose 24 h SBP and DBP increased by <5, 5-9, 10-14, 15-19, and >20 mm Hg compared with baseline; PK parameters of BIIB074 following a single oral dose in healthy female participants, and following repeated oral doses given twice daily to healthy male and female participants; PK/pharmacodynamic (PD) analyses to examine the correlation between ABP and plasma levels and/or metrics of the systemic exposure of BIIB074.
ABP was collected over 24 hours on an outpatient basis at baseline and at days 4, 15 and 36, and over 12 hours on an inpatient basis at baseline, and at days 14 and 35. The ABPM device was placed on the non-dominant arm (except in clinical situations that prohibited measuring BP in the non-dominant arm). BP and heart rate were measured every 15 minutes.
Non-inferiority was based on the one-sided 95% confidence interval (CI) for BIIB074-placebo excluding […] in SBP or DBP. It was planned to recruit approximately 60 participants in order to obtain a minimum of 48 evaluable for ABPM during the repeat dose phase, for at least 90% power, assuming a within-subject standard deviation (SDw) of 8.21 mmHg.
ABPM data were analyzed using a repeated measures mixed effects model, whereby fixed effects were treatment, day, treatment*day, period, average baseline*day, period adjusted baseline*day, sex and treatment*sex; random effect was subject; and repeated effect was day. All summary statistics were carried out using SAS 8.02 for UNIX running under the Harmonisation of Analysis and Reporting Program (HARP) environment. PK parameters were calculated by standard non-compartmental analysis according to working practices and using Wn Nonlin Pro v. 5.2.

healthy participants [4] = assay: Safety (adverse events, ECG) in 300/400 mg BID study; format: in vivo, human
Method: Safety was assessed through monitoring of adverse events (AEs), vital signs, electrocardiogram (ECG), and laboratory safety tests (including clinical chemistry). The safety population was the primary analysis population for this study and included all participants who received one or more doses of BIIB074. The PK population was defined as participants in the safety population for whom a PK sample was obtained and analysed.

dogs = conditions: dog, in vivo
Excerpt: The 36 day treatment duration in this study was rationally designed to determine whether tolerance developed for any potential effects of BIIB074 on SBP or DBP, since BP effects resolved by day 28 in the earlier phase 1 trial. The data from this study show a slight trend towards a decrease in the BP difference between BIIB074 and placebo between day 4 and day 35, although differences were minimal at all time points. […] Thus, the body of evidence, encompassing clinical and preclinical studies, supports safety and minimal effects of BIIB074 on BP/cardiovascular parameters.

CTrough exposure at steady state ([1]; 150 mg TID): 1099 ng/mL
Cmax Free plasma ([1]; 150 mg tid): 210 nM
Cmax total plasma ([1]; 150 mg tid): (2.06 μg/ml total plasma)
Cmax Free plasma ([1]; 200 mg bid): 290 nM
Cmax total plasma ([1]; 200 mg bid): (2.8 μg/ml total plasma)
CTrough exposure at steady state ([1]; 250 mg TID): 1750 ng/mL
Cmax Free plasma ([1]; 250 mg tid): 360 nM
Cmax total plasma ([1]; 250 mg tid): (3.43 μg/ml total plasma)
Cmax Free plasma ([1]; 350 mg bid): 370 nM
Cmax total plasma ([1]; 350 mg bid): (3.74 μg/ml total plasma)
SMILES: Cl.NC(=O)[C@@H]1CC[C@H](c2ccc(OCc3ccccc3F)cc2)N1 [Example 1, (5R)-5-(4-{[(2-Fluorophenyl)methyl]oxy}phenyl)-L-prolinamide hydrochloride]
Clinical efficacy [2]: EFFICACY OBSERVED
average increase of SBP over the 24 h interval (healthy participants [3]; PK/PD, inpatient ABPM): < 2 mmHg
observations with DBP increase more than 10 mmHg and absolute value >80 mmHg (healthy participants [3]; day 36): 6.9%
observations with SBP increase more than 10 mmHg and absolute value >130 mmHg (healthy participants [3]; day 36): 5.0%
slight increase in change from baseline for SBP, DBP and heart rate (healthy participants [3]; inpatient ABPM, days 14 and 35): 2.0-2.5 mmHg/bpm
observations in category increase from baseline SBP >30 mmHg (healthy participants [3]; outpatient 24 h, day 36, 4/1249 observations): 0%
observations in category increase from baseline DBP >20 mmHg (healthy participants [3]; outpatient 24 h, day 36, 35/1249 observations): 3%
Observations with DBP: Change > 10 and absolute value > 80 mmHg (healthy participants [3]; day 4, 300-400 mg repeat dose): 137 (10.6%)
Observations with SBP: Change > 10 and absolute value > 130 mmHg (healthy participants [3]; day 4, 300-400 mg repeat dose): 116 (9.0%)
Observations with DBP: Change > 10 and absolute value > 80 mmHg (healthy participants [3]; day 15, 300-400 mg repeat dose): 109 (8.3%)
Observations with SBP: Change > 10 and absolute value > 130 mmHg (healthy participants [3]; day 15, 300-400 mg repeat dose): 95 (7.2%)
Observations with DBP: Change > 10 and absolute value > 80 mmHg (healthy participants [3]; day 36, 300-400 mg repeat dose): 86 (6.9%)
Observations with SBP: Change > 10 and absolute value > 130 mmHg (healthy participants [3]; day 36, 300-400 mg repeat dose): 63 (5.0%)
overall change in SBP and DBP, outpatient and inpatient ABPM (healthy participants [3]; repeat doses for 36 days): lack of clinically relevant change in SBP and DBP
AEs of moderate intensity (healthy participants [4]; 300-400 mg bid repeat dose): 9
AEs of severe intensity (healthy participants [4]; 300-400 mg bid repeat dose): 2
participants withdrawn due to AEs while on BIIB074 (healthy participants [4]; of 7 AE withdrawals): 5
serious AEs (healthy participants [4]; whole study): No serious AEs were reported
effects on cardiovascular parameters (dogs): no effects of BIIB074 on cardiovascular parameters in dogs

— patent publication US20190255019A1, “NOVEL DOSAGE REGIMEN” (Biogen MA Inc., priority 2016, published 2019)
